Patent US10106536B2, “Imidazo(4,5-B) pyridin-2-yl amides as KV7 channel activators” (Knopp Biosciences LLC, priority 2013, dated 2018)

Target: T1, Kv7.2/7.3 (Homo sapiens, UniProt O43525+O43526)
T1 construct: host or cells: HEK cells, tetracycline-inducible expression
Assay: Kv7.2/7.3 activation assay, QPatch planar patch-clamp, single concentration screen
Assay type: cell-based
Conditions: compound 3 μM; Kv7.2/Kv7.3 co-expressing HEK cells; steady-state current at end of 1 s pulse to −30 mV
Description: Kv7.2/7.3 Activation Assay
The ability of compounds to potentiate K-currents in KV7.2/7.3 containing HEK cells was assessed using planar patch-clamp on the QPatch automated screening platform.
The hKV7.2/7.3 cell line was obtained from Chantest (Cleveland, Ohio 44128) cat.# CT6147. These HEK cells will express the Kv7.2/7.3 ion channels when induced.
Cell Culture: Cells were maintained in a media containing DMEM/F12; 50/50 (GIBCO cat.#11330), 10% Fetal Bovine Serum (FBS) (GIBCO cat.#26140), 100 units/mL Penicillin-Streptomycin (GIBCO cat.#15140), 0.005 mg/mL Blasticidin (INVIVOGEN cat.# ant-bl-1), 0.5 mg/mL Geneticin (GIBCO cat.#10131), 0.1 mg/mL Zeocin (GIBCO cat.# R25001). Cells used in the electrophysiology assay were maintained in a media without Blasticidin, Geneticin and Zeocin for 2 days and channel expression was induced by adding tetracycline (BIOLINE cat.# BIO-87030) at a final concentration of […]. Cells were grown in T-175 flask to ˜75% confluency. Currents were recorded 24 hours after channel induction.
Test compounds were prepared by performing serial dilutions on a Biomek NX^P (BECKMAN COULTER). Final dilutions were made in external recording solution with a final DMSO concentration of 0.1% DMSO. For single concentration screens each plate had 10 μM retigabine as a positive control and 0.1% DMSO as a negative control.
On the day of the experiment cells were washed with Hank's Balanced Salt Solution (HBBS) (GIBCO cat.#14175) and harvested with Tryple (GIBCO cat.#12604). Cells were then centrifuged at 2000 rpm for 5 minutes and resuspended in CHO-S-SFM (GIBCO cat.#12052) at ˜3×10^6 cells/mL. Cells were stirred for 30 minutes before experiments were started. External recording solution contained (in mM): NaCl (145), KCl (4), CaCl2 (2), MgCl2 (1), HEPES (10) and Glucose (10); pH was adjusted to 7.4 with NaOH and the osmolarity was adjusted to 300-305 mOsM with sucrose if necessary. Internal solution contained (in mM): KCl (125), KF (10), EGTA (5), Na2ATP (5), MgCl2 (3.2), HEPES (5); pH was adjusted to 7.2 with KOH and the osmolarity was adjusted to 298-302 mOsM with sucrose.
Potassium channel activity was measured on the QPatch HTX (Sophion Bioscience) using QPlates with 48-wells/plate. Each cell was taken as an independent experiment and only one compound was tested per well. Potassium channel activity was elicited by holding at −80 mV and stepping to −30 mV for 1 s followed by a 100 ms pulse to −120 mV.
Baseline conditions were obtained by recording 5 sweeps in the external solution only, this was repeated for three applications of the external solution. The effect of test compounds on elicited current was then assessed by recording 5 sweeps in the presence of a 3 μM or 10 μM compound solution. The steady-state current at the end of the 1 s pulse to −30 mV was measured to determine the fold increase from baseline.

| Kv7.2/7.3 Activity at 3 μM (increase in current over baseline) | SMILES |
| --- | --- |
| − (<1.2-fold increase over baseline (−)) | O=C(CC(C(F)(F)F)C(F)(F)F)Nc1nc2ccc(Cl)nc2n1C1CCC1 [Example 6, N-(5-chloro-3-cyclobutyl-3H-imidazo[4,5-b]pyridin-2-yl)-4,4,4-trifluoro-3-(trifluoromethyl)butanamide] |
| − (<1.2-fold increase over baseline (−)) | O=C(Cc1ccc(F)cc1)Nc1nc2cc(Cl)cnc2n1C1CCC1 [Example 58, N-(6-chloro-3-cyclobutyl-3H-imidazo[4,5-b]pyridin-2-yl)-2-(4-fluorophenyl)acetamide] |
| − (<1.2-fold increase over baseline (−)) | CC(C)(C)CC(=O)Nc1nc2ccc(-c3cccnc3)nc2n1C1CCC1.Cl [Example 151, N-(3-cyclobutyl-5-(pyridin-3-yl)-3H-imidazo[4,5-b]pyridin-2-yl)-3,3-dimethylbutanamide hydrochloride] |
| − (<1.2-fold increase over baseline (−)) | O=C(CCC1(C(F)(F)F)CC1)Nc1nc2ccc(Cl)nc2n1C1CCC1 [Example 223, N-(5-chloro-3-cyclobutyl-3H-imidazo[4,5-b]pyridin-2-yl)-3-(1-(trifluoromethyl)cyclopropyl)propanamide] |

| SMILES | Kv7.2/7.3 Activity at 3 μM (increase in current over baseline) |
| --- | --- |
| CC1(C)[C@H]2CC[C@@H](CC(=O)Nc3nc4cccnc4n3C3CCC3)[C@@H]1C2 [Example 24, N-(3-cyclobutyl-3H-imidazo[4,5-b]pyridin-2-yl)-2-((1S,2S,5S)-6,6-dimethylbicyclo[3.1.1]heptan-2-yl)acetamide] | +++ (>6-fold increase over baseline (+++)) |
| CC(C)(C)OCCC(=O)Nc1nc2ccc(C3CC3)nc2n1CC(F)(F)F [Example 108, 3-(tert-butoxy)-N-(5-cyclopropyl-3-(2,2,2-trifluoroethyl)-3H-imidazo[4,5-b]pyridin-2-yl)propanamide] | +++ (>6-fold increase over baseline (+++)) |

Same assay, conditions: compound 10 μM; Kv7.2/Kv7.3 co-expressing HEK cells; steady-state current at end of 1 s pulse to −30 mV

| SMILES | Kv7.2/7.3 Activity at 10 μM (increase in current over baseline) |
| --- | --- |
| O=C(CC1CCCCC1)Nc1nc2ccc(C(F)(F)F)nc2n1C1CCC1 [Example 43, N-(3-cyclobutyl-5-(trifluoromethyl)-3H-imidazo[4,5-b]pyridin-2-yl)-2-cyclohexylacetamide] | +++ (>6-fold increase over baseline (+++)) |
| CC1(C)[C@H]2CC[C@@H](CC(=O)Nc3nc4ccc(Cl)nc4n3C3CCC3)[C@@H]1C2 [Example 33, N-(5-chloro-3-cyclobutyl-3H-imidazo[4,5-b]pyridin-2-yl)-2-((1S,2S,5S)-6,6-dimethylbicyclo[3.1.1]heptan-2-yl)acetamide] | +++ (>6-fold increase over baseline (+++)) |
| O=C(CCc1ccccc1)Nc1nc2ccc(Cl)nc2n1C1CCC1 [Example 35, N-(5-chloro-3-cyclobutyl-3H-imidazo[4,5-b]pyridin-2-yl)-3-phenylpropanamide] | +++ (>6-fold increase over baseline (+++)) |
| CC(C)CC(=O)Nc1nc2ccc(C(F)(F)F)nc2n1C1CCC1 [Example 42, N-(3-cyclobutyl-5-(trifluoromethyl)-3H-imidazo[4,5-b]pyridin-2-yl)-3-methylbutanamide] | +++ (>6-fold increase over baseline (+++)) |
| O=C(CCC1CCCC1)Nc1nc2ccc(Cl)nc2n1C1CCC1 [Example 27, N-(5-chloro-3-cyclobutyl-3H-imidazo[4,5-b]pyridin-2-yl)-3-cyclopentylpropanamide] | +++ (>6-fold increase over baseline (+++)) |
| Cc1ccc2nc(NC(=O)CCOC(C)(C)C)n(CC(F)(F)F)c2n1 [Example 132, 3-(tert-butoxy)-N-(5-methyl-3-(2,2,2-trifluoroethyl)-3H-imidazo[4,5-b]pyridin-2-yl)propanamide] | +++ (>6-fold increase over baseline (+++)) |
| O=C(CC1CC2CCC1C2)Nc1nc2ccc(Cl)nc2n1C1CCC1 (centres unmarked) [Example 9, 2-(bicyclo[2.2.1]heptan-2-yl)-N-(5-chloro-3-cyclobutyl-3H-imidazo[4,5-b]pyridin-2-yl)acetamide] | +++ (>6-fold increase over baseline (+++)) |
| CC(C)Cn1c(NC(=O)CC(C)(C)C)nc2ccc(Cl)nc21 [Example 36, N-(5-chloro-3-isobutyl-3H-imidazo[4,5-b]pyridin-2-yl)-3,3-dimethylbutanamide] | +++ (>6-fold increase over baseline (+++)) |
| CC1(C)[C@H]2CC[C@@H](CC(=O)Nc3nc4cccnc4n3C3CCC3)[C@@H]1C2 [Example 24, N-(3-cyclobutyl-3H-imidazo[4,5-b]pyridin-2-yl)-2-((1S,2S,5S)-6,6-dimethylbicyclo[3.1.1]heptan-2-yl)acetamide] | +++ (>6-fold increase over baseline (+++)) |
| CC1(C)[C@H]2CC[C@@H](CC(=O)Nc3nc4ccc(C(F)(F)F)nc4n3C3CCC3)[C@@H]1C2 [Example 47, N-(3-cyclobutyl-5-(trifluoromethyl)-3H-imidazo[4,5-b]pyridin-2-yl)-2-((1S,2S,5S)-6,6-dimethylbicyclo[3.1.1]heptan-2-yl)acetamide] | +++ (>6-fold increase over baseline (+++)) |
| CC(C)(C)CC(=O)Nc1nc2ccc(C(F)(F)F)nc2n1C1CCC1 [Example 39, N-(3-cyclobutyl-5-(trifluoromethyl)-3H-imidazo[4,5-b]pyridin-2-yl)-3,3-dimethylbutanamide] | +++ (>6-fold increase over baseline (+++)) |
| CC(C)CC(=O)Nc1nc2ccc(Cl)nc2n1C1CCC1 [Example 28, N-(5-chloro-3-cyclobutyl-3H-imidazo[4,5-b]pyridin-2-yl)-3-methylbutanamide] | +++ (>6-fold increase over baseline (+++)) |
| CC(C)(C)CC(=O)Nc1nc2ccc(Cl)nc2n1-c1ccc(F)cc1 [Example 105, N-(5-chloro-3-(4-fluorophenyl)-3H-imidazo[4,5-b]pyridin-2-yl)-3,3-dimethylbutanamide] | +++ (>6-fold increase over baseline (+++)) |
| CC(C)Oc1ccc2nc(NC(=O)CCOC(C)(C)C)n(CC(F)(F)F)c2n1 [Example 120, 3-(tert-butoxy)-N-(5-isopropoxy-3-(2,2,2-trifluoroethyl)-3H-imidazo[4,5-b]pyridin-2-yl)propanamide] | +++ (>6-fold increase over baseline (+++)) |
| O=C(CCOC1CCCC1)Nc1nc2ccc(C(F)(F)F)nc2n1C1CCC1 [Example 91, N-(3-cyclobutyl-5-(trifluoromethyl)-3H-imidazo[4,5-b]pyridin-2-yl)-3-(cyclopentyloxy)propanamide] | +++ (>6-fold increase over baseline (+++)) |
| O=C(CC1CCCCC1)Nc1nc2ccc(Cl)nc2n1C1CCC1 [Example 29, N-(5-chloro-3-cyclobutyl-3H-imidazo[4,5-b]pyridin-2-yl)-2-cyclohexylacetamide] | +++ (>6-fold increase over baseline (+++)) |
| O=C(CCC1CCOC1)Nc1nc2ccc(C(F)(F)F)nc2n1C1CCC1 (centres unmarked) [Example 124, N-(3-cyclobutyl-5-(trifluoromethyl)-3H-imidazo[4,5-b]pyridin-2-yl)-3-(tetrahydrofuran-3-yl)propanamide] | +++ (>6-fold increase over baseline (+++)) |
| CC1(C)CCC(CC(=O)Nc2nc3ccc(C(F)(F)F)nc3n2C2CCC2)O1 (centres unmarked) [Example 96, N-(3-cyclobutyl-5-(trifluoromethyl)-3H-imidazo[4,5-b]pyridin-2-yl)-2-(5,5-dimethyltetrahydrofuran-2-yl)acetamide] | +++ (>6-fold increase over baseline (+++)) |
| CCOCC(=O)Nc1nc2ccc(Cl)nc2n1C1CCC1 [Example 34, N-(5-chloro-3-cyclobutyl-3H-imidazo[4,5-b]pyridin-2-yl)-2-ethoxyacetamide] | − (<1.2-fold increase over baseline (−)) |
| CC(C)(C)OCCC(=O)Nc1nc2cccnc2n1C1CCC1 [Example 3, 3-(tert-butoxy)-N-(3-cyclobutyl-3H-imidazo[4,5-b]pyridin-2-yl)propanamide] | +++ (>6-fold increase over baseline (+++)) |
